Assay results: patent US11884627B2, “Compounds and compositions for treating conditions associated with LPA receptor activity” (Lhotse Bio, Inc., priority 2022, dated 2024)
Like-named read-outs stand apart in the source and are kept apart here.

Target: T1, human LPA1 (Homo sapiens, UniProt Q92633)
T1 construct: expressed in transfected cells; host or cells: CHO-K1
Test: In vitro LPA1 calcium flux antagonist assay - Bioduro protocol
Assay type: cell-based
Details: CHO-K1 cells overexpressing human LPA1 and G15a, LPA challenge at EC80
Method: In Vitro LPA1 Calcium Flux Antagonist Assay—Bioduro Protocol
CHO-K1 cells overexpressing human LPA1 and G15a were seeded at a total volume of 20 μL (15000 cells/well) into Matrigel pre-coated 384-well plates (corning −3764) and incubated at 37° C. After overnight incubation, the cells were serum starved for 4 h. Assays were performed in dye loading buffer containing 1× Fluo-8 AM (AAT Bioquest, 21080) and 2.5 mM probenecid (Thermo Fisher, 36400) in HBSS/20 mM Hepes. After cell starvation, the medium was replaced with 20 μL of dye loading buffer and incubated at 37° C., for 30 min. Then 5 μL of 5× compound titrated in dye loading buffer was added to the cells and incubated for 30 min followed by LPA challenge at EC80. Calcium mobilization was measured on a FLIPR Tetra (MSD). For LPA EC80 determination, starved cells were incubated with 20 μL of dye loading buffer for 1 h, then 5 μL of 5×LPA titrated in dye loading buffer was added to the cells. Calcium signals induced by LPA was monitors on a FLIPR.
Percentage inhibition is calculated using the following formula: % Inhibition=100%×(1−(mean RFU of test sample−mean RFU of DMSO)/(mean RFU of LPA control−mean RFU of DMSO)).
Table B3 and Table B4 show the biological activity of compounds in in vitro LPA1 Calcium flux antagonist assay—Bioduro protocol.

[1] = calcium mobilization on FLIPR Tetra, read-out: IC50
[2] = Table B3, read-out: Activity (IC50 class)

T1 sequence (Q92633 whole entry): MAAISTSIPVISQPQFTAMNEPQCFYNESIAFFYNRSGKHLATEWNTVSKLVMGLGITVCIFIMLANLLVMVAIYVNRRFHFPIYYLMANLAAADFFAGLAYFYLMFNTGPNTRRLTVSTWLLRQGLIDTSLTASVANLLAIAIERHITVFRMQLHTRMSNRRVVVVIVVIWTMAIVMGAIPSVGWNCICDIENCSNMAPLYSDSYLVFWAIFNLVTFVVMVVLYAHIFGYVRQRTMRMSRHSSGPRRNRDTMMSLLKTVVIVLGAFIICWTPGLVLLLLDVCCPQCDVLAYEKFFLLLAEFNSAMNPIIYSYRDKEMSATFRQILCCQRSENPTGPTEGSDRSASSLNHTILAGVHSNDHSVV

SMILES	IC50 [1] [nM]	IC50 [2] [nM]
COc1cc(-c2ccc(NC3(C(=O)O)CCOCC3)cc2CO[C@@H]2CCC[C@H]2OC)c(C)c(OC)c1C (racemic) [Compound 204]	163	100 to 1000
COc1cc(-c2ccc(NC3(C(=O)O)CC(OC)C3)cc2COC2Cc3ccccc3C2)cc(OC)c1C (single isomer, unassigned) [Compound 125]	116	100 to 1000
COc1cc(-c2ccc(NC3(C(=O)O)CC(OC)C3)cc2COC2Cc3ccccc3C2)cc(OC)c1C (single isomer, unassigned) [Compound 126]	32.1	< 100
COc1cc(OC)cc(-c2ccc(NC3(C(=O)O)CCOCC3)cc2COC2COc3ccccc32)c1 (single isomer, unassigned) [Compound 158]	46.3	< 100
COc1cc(OC)cc(-c2ccc(NC3(C(=O)O)CCOCC3)cc2COC2COc3ccccc32)c1 (single isomer, unassigned) [Compound 159]	> 10000	> 1000
COc1cc(-c2ccc(NC3(C(=O)O)CCOCC3)cc2CCC2CCOC2)cc(OC)c1C (single isomer, unassigned) [Compound 186, 4-((3′,5′-dimethoxy-4′-methyl-2-(2-(tetrahydrofuran-3-yl)ethyl)-[1,1′-biphenyl]-4-yl)amino)tetrahydro-2H-pyran-4-carboxylic acid]	64.3	< 100
COc1cc(-c2ccc(NC3(C(=O)O)CCCOC3)cc2COC2CCCC2)c(C)c(OC)c1C (single isomer, unassigned) [Compound 200]	772	100 to 1000
COc1cc(-c2ccc(NC3(C(=O)O)CCCOC3)cc2COC2CCCC2)c(C)c(OC)c1C (single isomer, unassigned) [Compound 201]	73.2	< 100
COc1cc(-c2ccc(NC3(C(=O)O)CCOCC3)cc2COC2COc3ccccc32)cc(OC)c1C (single isomer, unassigned) [Compound 216]	18.6	< 100
COc1cc(-c2ccc(NC3(C(=O)O)CCOCC3)cc2COC2COc3ccccc32)cc(OC)c1C (single isomer, unassigned) [Compound 217]	584	100 to 1000
COc1cc(-c2ccc(NC3(C(=O)O)CCOCC3)cc2COC2COc3ccccc32)c(F)c(OC)c1C (single isomer, unassigned) [Compound 223]	4.76	< 100
COc1cc(-c2ccc(NC3(C(=O)O)CCOCC3)cc2COC2COc3ccccc32)c(F)c(OC)c1C (single isomer, unassigned) [Compound 224]	158	100 to 1000
COc1cc(-c2ccc(NC3(C(=O)O)CCC(C)(OC)CC3)cc2COC2CCCC2)c(F)c(OC)c1C (single isomer, unassigned) [Compound 237]	63.6	< 100
COc1cc(-c2ccc(NC3(C(=O)O)CCC(C)(OC)CC3)cc2COC2CCCC2)c(F)c(OC)c1C (single isomer, unassigned) [Compound 238]	268	100 to 1000
COc1c(C(C)OC)ccc(-c2ccc(NC3(C(=O)O)CCOCC3)cc2COC2CCCC2)c1C (single isomer, unassigned) [Compound 241]	87	100 to 1000
COc1c(C(C)OC)ccc(-c2ccc(NC3(C(=O)O)CCOCC3)cc2COC2CCCC2)c1C (single isomer, unassigned) [Compound 242]	266	100 to 1000
COc1cc(-c2ccc(NCCC(=O)O)cc2COCCc2ccccc2)cc(OC)c1C [Compound 106]	3480	> 1000
COc1cc(-c2ccc(N(C)CCC(=O)O)cc2COC2Cc3ccccc3C2)cc(OC)c1C [Compound 107]	2580	> 1000
COc1cc(-c2ccc(NCC(=O)O)cc2COC2Cc3ccccc3C2)cc(OC)c1C [Compound 108]	1880	> 1000
COc1cc(-c2ccc(NC3(C(=O)O)CCC3)cc2COC2Cc3ccccc3C2)cc(OC)c1C [Compound 110, 1-((2-(((2,3-dihydro-1H-inden-2-yl)oxy)methyl)-3′,5′-dimethoxy-4′-methyl-[1,1′-biphenyl]-4-yl)amino)cyclobutane-1-carboxylic acid]	152	100 to 1000
COc1cc(-c2ccc(NC3(C(=O)O)CCOCC3)cc2COC2Cc3ccccc3C2)cc(OC)c1C [Compound 111, 4-({2-[(2,3-dihydro-1H-inden-2-yloxy)methyl]-3′,5′-dimethoxy-4′-methyl-[1,1′-biphenyl]-4-yl}amino)oxane-4-carboxylic acid]	19.8	< 100

SMILES	IC50 [1] [nM]	IC50 [2] [nM]
COc1cc(-c2ccc(NC3(C(=O)O)CCCC3)cc2COC2Cc3ccccc3C2)cc(OC)c1C [Compound 112]	188	100 to 1000
CCOc1cc(-c2ccc(NCCC(=O)O)cc2COC2Cc3ccccc3C2)cc(OCC)c1C [Compound 113]	7130	> 1000
COc1cc(-c2ccc(NCCC(=O)O)cc2OCC2(C)Oc3ccccc3O2)cc(OC)c1C [Compound 115]	6820	> 1000
COc1cc(-c2ccc(NCC(C)C(=O)O)cc2COC2Cc3ccccc3C2)cc(OC)c1C (stereo not shown) [Compound 116]	2160	> 1000
COc1cc(-c2ccc(OC3(C(=O)O)CC3)cc2COC2Cc3ccccc3C2)cc(OC)c1C [Compound 117, 1-({2-[(2,3-dihydro-1H-inden-2-yloxy)methyl]-3′,5′-dimethoxy-4′-methyl-[1,1′-biphenyl]-4-yl}oxy)cyclopropane-1-carboxylic acid]	60.5	< 100
COc1cc(-c2ccc(C3(C(=O)O)CC3)cc2COC2Cc3ccccc3C2)cc(OC)c1C [Compound 118, 1-{2-[(2,3-dihydro-1H-inden-2-yloxy)methyl]-3′,5′-dimethoxy-4′-methyl-[1,1′-biphenyl]-4-yl}cyclopropane-1-carboxylic acid]	96.4	< 100
COc1cc(-c2ccc(NC3(C(=O)O)C[C@@H]3C)cc2COC2Cc3ccccc3C2)cc(OC)c1C (stereo partly drawn) [Compound 119, (2S)-1-((2-(((2,3-dihydro-1H-inden-2-yl)oxy)methyl)-3′,5′-dimethoxy-4′-methyl-[1,1′-biphenyl]-4-yl)amino)-2-methylcyclopropane-1-carboxylic acid]	35.6	< 100
COc1cc(-c2ccc(NC3(C(=O)O)CC(F)(F)C3)cc2COC2Cc3ccccc3C2)cc(OC)c1C [Compound 120]	57	< 100
COc1cc(-c2ccc(NC3(C(=O)O)CC3)cc2COC2Cc3ccccc3C2)cc(OC)c1C(C)=O [Compound 121, 1-({4′-acetyl-2-[(2,3-dihydro-1H-inden-2-yloxy)methyl]-3′,5′-dimethoxy-[1,1′-biphenyl]-4-yl}amino)cyclopropane-1-carboxylic acid]	13.5	< 100
COc1cc(-c2ccc(NC3(C(=O)O)CC3)cc2COC2Cc3ccccc3C2)c(C)c(OC)c1C(C)=O [Compound 122]	112	100 to 1000
COc1cc(-c2ccc(NC3(C(=O)O)CCOCC3)cc2COC2Cc3ccccc3C2)cc(OC)c1C(C)=O [Compound 123]	14.8	< 100
COc1cc(-c2ccc(NC3(C(=O)O)CCOCC3)cc2COC2CCCC2)cc(OC)c1C(C)=O [Compound 124]	91.6	< 100
COc1cc(-c2ccc(NC3(C(=O)O)CCOCC3)cc2COC2Cc3ccccc3C2)cc(OC)c1C#N [Compound 127]	16.3	< 100
COc1cc(-c2ccc(NC3(C(=O)O)CN(C(C)=O)C3)cc2COC2Cc3ccccc3C2)cc(OC)c1C [Compound 128]	31.4	< 100
COC(=O)N1CC(Nc2ccc(-c3cc(OC)c(C)c(OC)c3)c(COC3Cc4ccccc4C3)c2)(C(=O)O)C1 [Compound 129]	17.2	< 100
COc1cc(-c2ccc(NC3(C(=O)O)CC(O)C3)cc2COC2Cc3ccccc3C2)cc(OC)c1C (stereo not shown) [Compound 130]	191	100 to 1000
COc1cc(-c2ccc(NC3(C(=O)O)CC(O)C3)cc2COC2Cc3ccccc3C2)cc(OC)c1C (stereo not shown) [Compound 131]	190	100 to 1000
COc1cc(-c2ccc(NC3(C(=O)O)CCOCC3)cc2CCC2(C)Oc3ccccc3O2)cc(OC)c1C [Compound 132, 4-({3′,5′-dimethoxy-4′-methyl-2-[2-(2-methyl-1,3-benzodioxol-2-yl)ethyl]-[1,1′-biphenyl]-4-yl}amino)oxane-4-carboxylic acid]	20.1	< 100
COc1cc(-c2ccc(NC3(C(=O)O)CCN(C(C)=O)CC3)cc2COC2Cc3ccccc3C2)cc(OC)c1C [Compound 133]	82.9	< 100
COc1cc(-c2ccc(NC3(C(=O)O)CCOCC3)cc2COC2CCCC2)cc(OC)c1C [Compound 134, 4-({2-[(cyclopentyloxy)methyl]-3′,5′-dimethoxy-4′-methyl-[1,1′-biphenyl]-4-yl}amino)-oxane-4-carboxylic acid]	90.6	< 100
